Test: Water-solubility of the phthalocyanine compound
Format: physicochemical
Conditions: at the ordinary temperature
Procedure: 300 parts of wet cake containing 53.6 parts of tetramino copper phthalocyanine (0.085 mol) were suspended in 360 parts of water in a four-neck flask equipped with a condenser, followed by heating to 60° C. with stirring, dropping 9.5 parts of acetic anhydride (0.093 mol) at the same temperature and stirring at the same temperature for 5 hours. Successively 0.2 parts of hydroquinone and 95.4 parts of acrylic acid […] were added, followed by heating to 80° C. and stirring with keeping the same temperature for 12 hours. Judging from the reaction, mixture of several compounds though it is, the reaction product is found to correspond to a compound which comprises tetramino phthalocyanine having on average one introduced acyl group (acetylamino) and three introduced carboxyethyl per molecule, namely the desired monoacetylamino(2-tricarboxyethylamino) copper phthalocyanine.

water-solubility: about 10 % by mass
Substance: monoacetylamino(2-tricarboxyethylamino) copper phthalocyanine [Example 5]

Reference: US7018456B2, “Phthalocyanine compound, water-base ink composition and colored material” (Nippon Kayaku Kabushiki Kaisha, priority 2002, dated 2006)
